Like-named read-outs stand apart in the source and are kept apart here.
Key:
[1] = format: in vivo, human
Description: Pharmacokinetic data have been evaluated throughout the course of the dose escalation. Two HDM201 drug variants have been evaluated during the course of the study (refer to the protocol for further details). […] Furthermore, an integrated analysis of all available HDM201 concentrations was conducted using a population approach. The PK of HDM201 was best described by a 1-compartment PK model with a delayed zero- and first-order absorption process, and a linear clearance. Body weight was identified as a statistically significant covariate on apparent central volume of distribution (Vc/F), in which Vc/F increased with increasing body weight.
(§1) To further support the preferred dose for HDM201, compartmental PK modeling was used to estimate the individual average concentration per cycle for the 9 patients treated at 120 mg on regimen 1B (FIG. 15). For the majority of patients (7 out of 9), the estimated average drug concentrations per cycle were near or above the most conservative average tumor stasis concentration of ˜41 ng/mL per cycle determined from PKPD modeling of preclinical data (human SJSA-1 xenograft rat model).
(§2) Compartmental population PK modeling of NVP-HDM201 was used to estimate the individual average plasma concentration for Cycle 1 and to allow comparison with preclinical average concentration for tumor stasis derived by PK/PD tumor growth modeling. […] The dashed line at concentration of ≈19 ng/mL represents average tumor stasis determined from PK/PD modeling of preclinical data from a liposarcoma (HSAX2655) patient-derived xenograft rat model.

[2] = system: human SJSA-1 (osteosarcoma) xenograft; assay: TGI PK/PD modelling, human SJSA-1 (osteosarcoma) xenograft rat; format: in vivo; conditions: human SJSA-1 xenograft rat; for Average concentration for tumor stasis: TGI PK/PD modelling
Description: as §1, §2

[3] = format: in vivo
From the text: The endpoint for the primary objective is the incidence of Dose Limiting Toxicities (DLTs) during the first cycle of treatment. Although the primary analysis estimates the MTD based on DLT rate, the final preferred dose determination utilizes additional data beyond cycle 1 DLT rate, including later cycle tolerability, PK, PD and anti-tumor activity.
Therefore, dose limiting hematologic toxicities occurring in cycle 2 were also factored into dose escalation decisions during the course of the study, using a non-binding sensitivity model. Table Ex2.4 summarizes the number of dose limiting toxicities during cycle 1 and dose limiting hematologic toxicities in cycle 2 across all the regimens evaluated in solid tumors.
This study utilizes a Bayesian logistic regression model (BLRM) to support dose escalation and estimate the MTD and/or determine the preferred dose for HDM201. The BLRM with escalation with overdose control (EWOC) enables incorporation of available prior information and updates the model parameters based upon new information about observed dose limiting toxicities (DLT) seen in the clinical study. During the course of the dose escalation for regimen 1A and 1B, DLT incidence has been used to update the model and support the decision for the next dose. When during the course of the study it became apparent that HDM201 induced bone marrow toxicity occurred predominantly during cycle 2, a non-binding sensitivity model including cycle 1 DLT and hematologic dose limiting AEs in cycle 2 (weighting all cytopenias equally) was used to guide dose escalation/RDE determinations. Additionally, decisions were at all times based on a synthesis of relevant data available from all dose levels evaluated in the study including low grade toxicities, PK, and PD data (when available) from evaluable patients.

[4] = system: p53 knock out Colon 26 clones; assay: p53 KO Colon26 model; format: in vivo, mouse
Description: p53 knock out Colon 26 Clones were grown in the presence of 1 μM HDM201 and screened for p53 expression by western blot, loading 40 μg total protein/sample, using an anti p53 antibody (Cell Signaling CST #2524). p53 negative clones were identified, grown without HDM201 for 4 days and then re-treated with 1 μM HDM201 for 24 hours, along with Colon26 parental cells, to monitor p53 pathway’ response. p53 and p21 changes were monitored by western blot and an 84 gene qPCR array was used to additionally confirm pathway activity (RT2 Profiler PCR Array p53 pathway, Cat No. 330231 PAMM-027ZA Qiagen). Select clones were also submitted for RNASeq analysis.
There was no additional benefit observed when the PD-1/PD-L1 axis was blocked (FIG. 30).

[5] = system: AH1-specific CD8+ T cells; assay: Anti-tumor memory T cell responses: IFN-γ ELISPOT with AH1 peptide and H2Ld-AH1 dextramers on splenocytes; format: cell-based, mouse
From the text: Consistent with this, we observed an increase in frequency of AH1-specific CD8^+ T cells in spleens of mice treated with HDM201 or combination of HDM201 with anti-PD1 antibody induced responders as detected by H2Ld-AH1 dextramers. (FIGS. 28 and 29).

[6] = 1A (d 1 Q3 weeks) 12.5 mg (n = 1)
[7] = 1B (d 1, d 8 of 4 w cycle) 120 mg (n = 9)
[8] = 2A (2 weeks on/2 weeks off) 1 mg (n = 1)
[9] = 2C (1 week on/3 weeks off) 15 mg (n = 8)

## COc1ncc(-c2nc3c(n2C(C)C)[C@H](c2ccc(Cl)cc2)N(c2cc(Cl)cn(C)c2=O)C3=O)c(OC)n1 [HDM201, (S)-5-(5-Chloro-1-methyl-2-oxo-1,2-dihydro-pyridin-3-yl)-6-(4-chloro-phenyl)-2-(2,4-dimethoxy-pyrimidin-5-yl)-1-isopropyl-5,6-dihydro-1H-pyrrolo[3,4-d]imidazol-4-one]
[1]; daily dosing
  steady-state reached: ≤ 8 days
[1]; dose range 2 to 350 mg
  median time to reach maximum plasma concentrations (Tmax): 2 to 5.8 h
[1]; human, in vivo
  accumulation upon daily dosing: limited accumulation
[1]; regimen 1B 120 mg, compartmental PK modeling
  patients with estimated average drug concentration per cycle near or above ~41 ng/mL: 7 out of 9
[2]
  Average concentration for tumor stasis: ~41 ng/mL
  average concentration for 95% tumor regression: 120 ng/mL
[2]; listed as NVP-HDM201
  Average concentration for tumor stasis: ≈ 41 ng/mL
  average concentration for 95% tumor regression: 125 ng/mL
[3]; 1A 25 mg (n = 1)
  DLTs (cycle 1): 0
  Hematologic dose limiting toxicities (cycle 2): 0
[3]; 1A 50 mg (n = 4)
  DLTs (cycle 1): 0
  Hematologic dose limiting toxicities (cycle 2): 1
[3]; 1A 100 mg (n = 4)
  DLTs (cycle 1): 0
  Hematologic dose limiting toxicities (cycle 2): 0
[3]; 1A 200 mg (n = 5)
  DLTs (cycle 1): 0
  Hematologic dose limiting toxicities (cycle 2): 1
[3]; 1A 250 mg (n = 6)
  DLTs (cycle 1): 0
  Hematologic dose limiting toxicities (cycle 2): 1
[3]; 1A 350 mg (n = 5)
  DLTs (cycle 1): 2
  Hematologic dose limiting toxicities (cycle 2): 2
[3]; [6]
  DLTs (cycle 1): 0
  Hematologic dose limiting toxicities (cycle 2): 0
[3]; 1B 150 mg (n = 8)
  DLTs (cycle 1): 1
  Hematologic dose limiting toxicities (cycle 2): 1
[3]; 1B 200 mg (n = 3)
  DLTs (cycle 1): 0
[3]; [7]
  DLTs (cycle 1): 0
  Hematologic dose limiting toxicities (cycle 2): 2
[3]; 2A 2 mg (n = 2)
  DLTs (cycle 1): 0
  Hematologic dose limiting toxicities (cycle 2): 0
[3]; 2A 4 mg (n = 4)
  DLTs (cycle 1): 0
  Hematologic dose limiting toxicities (cycle 2): 0
[3]; 2A 7.5 mg (n = 4)
  DLTs (cycle 1): 0
  Hematologic dose limiting toxicities (cycle 2): 0
[3]; 2A 15 mg (n = 4)
  DLTs (cycle 1): 0
  Hematologic dose limiting toxicities (cycle 2): 1
[3]; 2A 20 mg (n = 5)
  DLTs (cycle 1): 0
  Hematologic dose limiting toxicities (cycle 2): 4
[3]; [8]
  DLTs (cycle 1): 0
  Hematologic dose limiting toxicities (cycle 2): 0
[3]; 2C 20 mg (n = 6)
  DLTs (cycle 1): 0
  Hematologic dose limiting toxicities (cycle 2): 0
[3]; 2C 25 mg (n = 5)
  DLTs (cycle 1): 2
  Hematologic dose limiting toxicities (cycle 2): 0
[3]; [9]
  DLTs (cycle 1): 0
  Hematologic dose limiting toxicities (cycle 2): 1
[3]; BLRM, regimen 1B 120 mg
  Median DLT rate, per protocol analysis: 3.5%
  Median DLT rate, sensitivity analysis: 25.7%
[3]; D1 and D8 of each 28 day cycle
  RDE for patients with solid tumors: 120 mg
[3]; regimen 1A, N = 26
  DLTs (cycle 1), Total: 2
  Hematologic dose limiting toxicities (cycle 2), Total: 5
[3]; regimen 1B
  dose up to which BLRM (cycle 1 DLT events) supported escalation: up to 400 mg
[3]; regimen 1B 150 mg, onset on day 22, lasting 18 days
  events of prolonged neutropenia meeting DLT criteria: One
[3]; regimen 1B, N = 20
  DLTs (cycle 1), Total: 1
  Hematologic dose limiting toxicities (cycle 2), Total: 3
[3]; regimen 2A, N = 20
  DLTs (cycle 1), Total: 0
  Hematologic dose limiting toxicities (cycle 2), Total: 5
[3]; regimen 2C, N = 19
  DLTs (cycle 1), Total: 2
  Hematologic dose limiting toxicities (cycle 2), Total: 1
[3]; typically occurring during Cycle 2
  Dose-limiting toxicities (type): neutropenia and thrombocytopenia
[4]
  tumor growth inhibition: not able to inhibit tumor growth
[5]; responder mice
  frequency of AH1-specific CD8+ T cells in spleens (H2Ld-AH1 dextramers): increase
[5]; splenocytes of responder mice stimulated with AH1 peptide
  antigen-specific production of IFN-γ by T cells (ELISPOT): detected in all responders
